Experimental data reported in ChEMBL document CHEMBL3137356, “MMV Box Cryptosporidium parvum screening set”.

System: Cryptosporidium parvum
Test: MMV: Cryptosporidium parvum oocysts (Iowa Strain) were prepared for use by treatment with 10 mM HCl (37 degrees C, 10 min) followed by 2 mM sodium taurocholate in phosphate-buffered saline (PBS) with Ca2+ and Mg2+ (16 degrees C, 10 min) in order to stimulate excystation. The high-throughput screen was carried out by inoculating >90% confluent human ileocecal adenocarcinoma (HCT-8) cells (ATCC) with ~5.5 x 10^3 primed oocysts per well. Experimental compounds or DMSO (vehicle) were added three hours after infection, and cells were incubated for 48 hours.
Assay type: functional

Going from `CN1CCN(c2ccc(Nc3c4ccccc4nc4ccccc34)cc2)CC1` to `c1ccc2cc3c(Nc4ccc(N5CCOCC5)cc4)ccnc3cc2c1`, the Inhibition rises from 7.066% to 17%.

Compared with `CN(C)CCCNc1c2ccccc2nc2ccccc12`, `CCN(CC)CCCNc1nc(-c2ccc(Cl)cc2)nc2ccccc12` is lower in Inhibition: 55.64% for the first, -30.51% for the second.

First: CCN1CCCC1CNc1[nH]cnc2c3cc(Cl)ccc3nc1-2 (stereo not drawn)
Second: CCN(CC)CCNc1ncnc2c1[nH]c1ccc(Cl)cc12
The Inhibition of the first is higher: -14.57% for the first, -27.98% for the second.

Going from `COc1ccc(-c2c(C)nn3c(N)c(C#N)cnc23)cc1OC` to `COc1ccc(C(=O)Nc2nonc2-c2ccc(OC)c(OC)c2)cc1Cl`, the Inhibition rises from -20.9% to 4.722%.

First: CSC1=NC(=Nc2c(C)cccc2C)C2(CCC(C(C)(C)C)CC2)N1c1ccc(Cl)cc1 (stereo not drawn)
Second: Cc1cc(C=C2SC(=Nc3ccccc3)N(C3CCCC3)C2=O)c(C)n1-c1ccc(Cl)cc1
The Inhibition of the first is lower: -57.3% for the first, 0.2141% for the second.

First: C[n+]1c2ccccc2nc2ccc(NCCO)cc21
Second: Cc1ccc(Nc2nc(NCCO)c3ccccc3n2)cc1C
The Inhibition of the first is lower: -27.1% for the first, 34.33% for the second.

Going from `Cc1cc(C)cc(Nc2cc(C)nc3nc(C(F)(F)F)nn23)c1` to `Cc1cc(Nc2ccc(C)c(Cl)c2)n2nc(C(F)(F)F)nc2n1`, the Inhibition rises from -21.92% to 4.308%.

Going from `O=C(NCC(c1ccsc1)N1CCCCCC1)c1ccc(C(F)(F)F)cc1` (stereo not drawn) to `CC(O)(c1ccc(Cl)cc1)C(CN1CCCCC1)c1ccccc1.Cl` (stereo not drawn), the Inhibition rises from -22.24% to 15.77%.

Compared with `COc1ccc(-c2cc3c(SCC(=O)Nc4cc(C(F)(F)F)ccc4Cl)nccn3n2)cc1`, `Cc1ccc(-c2cc3c(SCC(=O)Nc4cc(C(F)(F)F)ccc4Cl)nccn3n2)cc1` is higher in Inhibition: -78.4% for the first, -45.33% for the second.

Compared with `CCOC(=O)c1cnc2ccc(CC)cc2c1O`, `CCOC(=O)c1ccc2nc(-c3ccccc3)cc(O)c2c1` is higher in Inhibition: -16.47% for the first, -8.454% for the second.

Going from `Cc1ccc(-c2cc3c(nn2)-c2ccccc2C3=O)cc1` to `Cc1ccc(Nc2nc(-c3ccccn3)cs2)cc1`, the Inhibition rises from -55.29% to -19.75%.

Compared with `CCN(CC)CCNc1ccnc2cc(Cl)ccc12`, `CNCCCNc1ccnc2cc(Cl)ccc12` is higher in Inhibition: -45.62% for the first, -4.729% for the second.

Going from `CCCCCC(=O)N1c2ccccc2N=C2CC(c3ccc(OC)c(OC)c3)CC(O)=C2C1c1ccc(C(F)(F)F)cc1` (stereo not drawn) to `COc1ccc(Br)cc1C1Nc2ccc3ccccc3c2C2=C1C(=O)CC(c1ccccc1)C2` (stereo not drawn), the Inhibition falls from -9.957% to -67.54%.

Compared with `Cc1cc(Nc2ccc3ccccc3c2)n2ncnc2n1`, `Cc1cc(Nc2ccc(Cl)cc2)n2nc(C(F)(F)F)nc2n1` is higher in Inhibition: -10.13% for the first, 36.64% for the second.

Compared with `Cc1cc(NCCN2CCCCC2)c2ccc3ccccc3c2n1`, `COc1ccccc1NC1=C(N2CCCCC2)C(=O)c2ccccc2C1=O` is lower in Inhibition: -25.58% for the first, -35.82% for the second.

Compared with `COc1ccc(-n2ccnc2SCC(=O)Nc2cc(C)ccc2C)c(OC)c1`, `CCOC(=O)c1cnc2c(C)cc(C)cc2c1Nc1ccc(OC)c(OC)c1` is lower in Inhibition: -14.53% for the first, -30.02% for the second.

First: CCN1CCN(Cc2ccc(NC(=O)c3cc4ccc5cccnc5c4[nH]3)cc2)CC1
Second: CC1CCN(Cc2ccc(NC(=O)c3cc4ccc5cccnc5c4[nH]3)cc2)CC1
The Inhibition of the first is lower: -49.16% for the first, -17.38% for the second.

Going from `COc1ccc(-c2nc(NC(=O)CS(=O)(=O)c3ccc(F)cc3)sc2C)cc1` to `CC1CCCCN1CCCNC(=O)c1ccc2c(c1)sc1nc(-c3ccc(F)cc3)cn12` (stereo not drawn), the Inhibition rises from -22.95% to 7.741%.

First: O=C(O)C1Cc2c([nH]c3ccccc23)C(c2ccc(Cl)cc2Cl)N1 (stereo not drawn)
Second: O=C(Nc1ccccc1O)c1ccc(-c2ccc(Cl)cc2Cl)o1
The Inhibition of the first is lower: -71.65% for the first, -8.773% for the second.

Going from `c1ccc(-c2ccc(-c3nc4ccccc4[nH]3)cc2)cc1` to `COc1ccc(-c2nc3cc(Cc4ccc5[nH]c(-c6ccc(OC)cc6)nc5c4)ccc3[nH]2)cc1`, the Inhibition rises from 27.1% to 35.52%.

Going from `CCC(C)NCC(O)(c1ccc(Cl)cc1)c1ccc(Cl)cc1` (stereo not drawn) to `CCCCNCC(O)(c1ccc(Cl)cc1)c1ccc(Cl)cc1`, the Inhibition rises from -5.937% to 9.548%.

First: Cc1ccc(N2C(=O)C3C(C2=O)C2(c4ccccc4)C(=O)C3(c3ccccc3)C(c3ccccc3)=C2c2ccccc2)cc1 (stereo not drawn)
Second: COc1ccc(C2=C(c3ccc(OC)cc3)C3(c4ccccc4)C(=O)C2(c2ccccc2)C2C(=O)N(c4ccc(C)cc4)C(=O)C23)cc1 (stereo not drawn)
The Inhibition of the first is lower: -46.86% for the first, 63.25% for the second.

First: CCc1c(C)c(=N)c2ccccc2n1C.I
Second: CCCc1c(CC)c(=N)c2ccccc2n1C
The Inhibition of the first is higher: 11.41% for the first, -20.98% for the second.

Going from `COc1cccc(NC(=O)[C@H](C(C)C)n2c(=O)[nH]c3ccccc3c2=O)c1` to `COc1ccccc1CNC(=O)CCn1c(=O)[nH]c2ccccc2c1=O`, the Inhibition falls from 8.977% to 3.729%.

Going from `CCOC(=O)c1cn(CC)c2cc(N(C)CCc3ccc(OC)c(OC)c3)c(F)cc2c1=O` to `CCOC(=O)c1cn(CC)c2cc(N3CCCCC3)c(F)cc2c1=O`, the Inhibition falls from 43.56% to 6.363%.

First: CCC(c1ccccc1)c1nn2c(-c3cccs3)nnc2s1 (stereo not drawn)
Second: CSc1ccccc1C(=O)Nc1nc(-c2ccccn2)cs1
The Inhibition of the first is lower: -11.07% for the first, 75.6% for the second.

Going from `CC(C)(C)c1ccc(O)c(CNC2CCCCC2)c1` to `OC(CNC1CCCCC1)Cn1c2ccccc2c2ccccc21` (stereo not drawn), the Inhibition rises from -70.4% to -24.91%.

First: O=[N+]([O-])c1ccc(C=NNc2nc3ccccc3[nH]2)cc1
Second: Oc1ccc(Cl)cc1CNc1nc2ccccc2[nH]1
The Inhibition of the first is lower: -55.94% for the first, -2.947% for the second.

First: CCOc1cc2c(cc1OCC)C(c1cc(OC)c(O)cc1Cl)NCC2 (stereo not drawn)
Second: CCOc1cc(Cl)c(C(C)NC(=O)c2ccccc2)cc1OCC (stereo not drawn)
The Inhibition of the first is lower: -16.38% for the first, 5.189% for the second.

Compared with `CC1CN(C(=O)c2sc3ccccc3c2Cl)CC(C)O1` (stereo not drawn), `Cc1cc(C)c2c(c1)OCN(Cc1ccccc1Cl)C2` is lower in Inhibition: 27% for the first, -66.49% for the second.

First: COCCNC(=O)c1ccc(OC2CCN(Cc3ccc(F)c(F)c3)CC2)c(Cl)c1
Second: O=C(CCc1ccco1)NC1CCN(CC2(c3ccc(Cl)cc3)CCC2)CC1
The Inhibition of the first is higher: 10.52% for the first, -27.18% for the second.

Compared with `CN(C)c1ccc(C=Cc2nc(=O)c3ccccc3o2)cc1`, `CCOc1ccc(/C=C/c2nc(=O)c3ccccc3o2)cc1` is higher in Inhibition: -61.37% for the first, -0.2946% for the second.

Going from `CCOC(=O)c1c(NC(=O)c2ccccc2)sc2c(O)c(CN(CC)CC)ccc12` to `CCOC(=O)c1c(C)n(-c2ccc(Cl)cc2)c2ccc(OC(=O)C=Cc3ccccc3)cc12`, the Inhibition falls from 50.63% to -77.36%.

Compared with `CCOC(=O)C1=C(c2ccccc2)N=c2sc(=Cc3cc(C)n(-c4ccc(F)cc4)c3C)c(=O)n2C1c1cccc(OC)c1OC` (stereo not drawn), `COc1ccc(C(C)=O)cc1N1C(=O)C2C(C1=O)C1(c3ccccc3)C(=O)C2(c2ccccc2)C(c2ccc(C)cc2)=C1c1ccc(C)cc1` (stereo not drawn) is higher in Inhibition: -76.69% for the first, 5.543% for the second.

Going from `CCC1(C)CC(CCNCc2ccccc2O)(c2ccc(C)cc2)CCO1` (stereo not drawn) to `Cl.Oc1ccccc1CNCC12CC3CC(CC(C3)C1)C2`, the Inhibition falls from -2.346% to -10.2%.

First: COc1cccc(C=Cc2nc(=O)c3ccccc3o2)c1OC
Second: COc1ccc(C=C2SC(=N)N(c3ccccc3OC)C2=O)cc1
The Inhibition of the first is higher: 44.65% for the first, 10.76% for the second.

First: CCCN(CCC)CC(O)COc1ccccc1C(=O)Nc1ccccc1 (stereo not drawn)
Second: CCOc1ccccc1CNC(=O)C1c2ccccc2C(=O)N(CC(C)C)C1c1cccs1 (stereo not drawn)
The Inhibition of the first is higher: 46.62% for the first, -30.75% for the second.

Compared with `Fc1ccc2[nH]c3c(NCCCN4CCOCC4)ncnc3c2c1`, `FC(F)(F)c1cccc(CNC2CCN(CCc3ccccc3)CC2)c1` is lower in Inhibition: -0.2614% for the first, -52.87% for the second.

Compared with `COCCN(C(=O)Cc1cccs1)C(C(=O)NCc1ccc(OC)cc1)c1ccc(C(C)C)cc1` (stereo not drawn), `COc1ccc(NC(=O)C2c3ccccc3C(=O)N(CC(C)C)C2c2cccs2)cc1` (stereo not drawn) is lower in Inhibition: 3.107% for the first, 0.02548% for the second.

First: COc1ccc(NC(=O)C2c3ccccc3C(=O)N(CC(C)C)C2c2cccs2)cc1Cl (stereo not drawn)
Second: Cc1cc(NC(=O)C2c3ccccc3C(=O)N(CC(C)C)C2c2cccs2)no1 (stereo not drawn)
The Inhibition of the first is higher: -10.67% for the first, -19.27% for the second.

First: COc1ccc2c(c1)OC(O)(C(F)(F)C(F)(F)F)CC2=O (stereo not drawn)
Second: COc1ccc2c(=O)cc(C(Cl)(Cl)Cl)oc2c1
The Inhibition of the first is lower: 33.72% for the first, 71.77% for the second.

Going from `C=CC12CCN(CC1)C(C(O)c1ccnc3ccc(OC)cc13)C2.Cl` (stereo not drawn) to `Cc1ccc(-c2cc3nc4c(c(O)n3n2)CCCC4)cc1`, the Inhibition rises from 1.246% to 2.31%.

Compared with `O=C(c1ccccc1F)N(Cc1ccc(Cl)cc1)c1ccccn1`, `O=C(Nc1nc(-c2ccccn2)cs1)c1ccccc1Br` is higher in Inhibition: -0.1452% for the first, 62.15% for the second.

Compared with `Cc1cccc(Nc2nc(N)c3ccccc3n2)c1.Cl`, `CCc1ccc(Nc2cc(C)c3ccc(O)cc3n2)cc1.Cl` is lower in Inhibition: 39.08% for the first, -30.31% for the second.

Going from `CCn1c(CN2CCN(Cc3ccccc3)CC2)nc2cc(NC(=O)c3cccs3)ccc21` to `Cc1ccc(Cn2c(N3CCC(C(=O)NCc4cccs4)CC3)nc3ccccc32)cc1`, the Inhibition rises from -14.21% to -4.981%.

Compared with `O=C(Nc1ccc(Cl)cc1)N1CCN(c2ccc3nncn3n2)CC1`, `O=C(Nc1ccc(Cl)cc1C(=O)Nc1ccncc1)c1ccc(Cl)cc1Cl` is lower in Inhibition: 64.92% for the first, -3.564% for the second.

Compared with `COc1cc(OC)c(N(C)C(=O)c2cc3c(s2)-c2ccccc2S(=O)(=O)C3)cc1Cl`, `COc1ccccc1CNC(=O)CCn1c(=O)[nH]c2ccsc2c1=O` is higher in Inhibition: -25.68% for the first, -10.39% for the second.

Going from `CCCc1cc(O)c2c3c(c(=O)oc2c1)CN(C)CC3` to `CCCCc1ccc(NS(=O)(=O)c2cc3c4c(c2)CCN4C(=O)CC3)cc1`, the Inhibition rises from -49.5% to 4.064%.

First: CCn1c(SCC(=O)Nc2cc(C(F)(F)F)ccc2Cl)nc2ccccc2c1=O
Second: c1ccc(Cn2c(N=Nc3c(Nc4ccccc4)ccc4ccccc34)nc3ccccc32)cc1
The Inhibition of the first is lower: -35.13% for the first, 2.817% for the second.

Compared with `CCOc1ccc(-c2nonc2NC(=O)c2cccc(C)c2)cc1OCC`, `CCCCCCOC(=O)C1=C(C)NC(=O)NC1c1ccccc1F` (stereo not drawn) is lower in Inhibition: 2.223% for the first, -26.01% for the second.

First: CC(C)(C)CC(C)(C)NCC(O)COc1ccc2c(c1)CCC2.Cl (stereo not drawn)
Second: COc1ccc(C2Sc3ccccc3N=C3C2=C(O)c2ccccc23)cc1 (stereo not drawn)
The Inhibition of the first is lower: -49.34% for the first, 19.55% for the second.

`Cc1ccc(N2C3c4ccccc4N(S(=O)(=O)c4ccc(C)cc4)C2c2ccccc2N3S(=O)(=O)c2ccc(C)cc2)cc1` gave an Inhibition of -51.15%.
